“Also recorded” adds a separate entry of the source.
Tests used:
[1] = system: human blood vessel organoids; assay: Diabetic basement membrane thickening (Collagen IV) in human blood vessel organoids cultured in diabetic medium; type: cell-based; conditions: for increase of Col IV+ basement membrane under diabetic conditions: 75 mM Glucose, 1 ng/mL IL-6, 1 ng/mL TNF-α, 10 μM RO4929097, 1 μM Dehydroxy-LY411575, 1 μM LY411575; for high glucose/TNFα/IL6-induced thickening of the basal blood vessel membrane (Collagen IV): diabetic medium 75 mM Glucose, 1 ng/mL TNFα, 1 ng/mL IL-6, drug doses (DAPT 25 μM); for diabetic basement membrane thickening (Col IV) on blocking Notch pathway members: 2 weeks diabetic media (hyperglycemia + IL-6 + TNF-a), blocking antibodies or non-crosslinked recombinant proteins
Procedure: Modeling diabetic vasculopathy in human vascular organoids. Established endothelial networks in vascular organoids were cultured in a non-diabetic control medium (17 mM Glucose) or diabetic medium (75 mM Glucose, in the presence of absence of human TNFα (1 ng/mL, Invitrogen PHC3011) and/or IL-6 (1 ng/mL, Peprotech 200-06)) for up to 3 weeks before the basement membrane was investigated by Collagen type IV immunostaining and electron microscopy. D-Mannitol was used in non-diabetic media to control for hyperosmotic effects. For basement membrane quantifications, acquired z-stacks were analysed and the thickness of ColIV coats around luminal structures were measured using ImageJ software. For drug treatment, organoids were exposed to diabetic medium (75 mM Glucose, 1 ng/mL human TNFα, and 1 ng/mL IL-6) in the presence or absence of the following drugs: 2,4-Thiazolidinedione (5 mM, Abcam ab144811), Metformin (5 mM, Abcam ab120847), Acarbose (80 μg/mL, Sigma A8980), […] (100 μM, Sigma N3538), Diphenyleneiodonium (10 μM), Glimepiride (30 nM, Sigma G2295), Pioglitazone (10 μM, Sigma E6910). The following small molecule inhibitors were used: N-Acetyl-L-cysteine (500 μM, Sigma, A7250), CHIR99021 (10 μM, Tocris 4423), Goe6976 (100nM, Merck U51365250), MK2206 (10 μM, EubioS1078), QNZ (10 μM, Eubio […]), 5B203580 (10 μM, Eubio […]), SCH772984 (500 nM, Eubio […], Calbiochem 688000), DAPT (25 μM, Sigma D5942), 5B431542 (10 μM, Abcam ab120163).

[2] = system: human vascular organoid transplants; assay: Human CD31+ blood vessel density of vascular organoid transplants in diabetic STZ mice; type: in vivo, mouse; conditions: diabetic STZ NSG mice, DAPT 5 mg/kg
Procedure: (§1) Modeling diabetic vasculopathy in human vascular organoids in vivo. Immunodeficient NSG mice carrying human vascular organoid transplants were daily i.p. injected with 40 mg/kg Streptozotocin (STZ) (Merck, 572201) for 5 consecutive days. Every day, STZ was freshly dissolved in citrate buffer (pH4.6) and immediately used. Diabetes was confirmed (blood glucose >300 mg/dL) by measuring non-fasting glucose using the OneTouch UltraEasy system (Lifetouch, AW 06637502C). DAPT (Selleckchem 52215) was dissolved in ethanol and injected with 90% cornoil for 5 consecutive days at 5 mg/kg with 2 days of no treatment per week. Anti-Notch3 blocking antibodies (R&D AF1559) were injected 3 time/week at lmg/kg. For quantifying vessel leakage, the FITC-Dextran^+ area was measured and normalized to the area of perfused human blood vessels (hCD31^+) using the FIJI software. This ratio was then further normalized to control non-diabetic mice. Permeability of long-term DAPT treated vessels were measured after 2 days of treatment stop to avoid measuring acute effects of DAPT on vessel permeability.

[3] = system: human vascular organoid transplants; assay: Vessel leakage (FITC-Dextran extravasation) of human vascular organoid transplants in diabetic STZ mice; type: in vivo, mouse; conditions: diabetic STZ NSG mice, DAPT 5 mg/kg
Procedure: as §1

[4] = system: human blood vessel organoids; assay: Diabetic basement membrane thickening (Collagen IV) in human blood vessel organoids cultured in diabetic medium; type: cell-based; conditions: diabetic cocktail, indicated DAPT doses (FIG. 5)

`C[C@H](NC(=O)[C@@H](O)c1cc(F)cc(F)c1)C(=O)N[C@@H]1C(=O)N(C)c2ccccc2-c2ccccc21` [LY411575] was tested, and the “increase of Col IV+ basement membrane under diabetic conditions” value (from here on “increase of Col IV+ basement membrane”) [1] was “prevent the increase of basement membrane (Col IV) under diabetic conditions”.

For `CN(C)C(=N)N=C(N)N` [metformin, Metformin], the “high glucose/TNFα/IL6-induced thickening of the basal blood vessel membrane (Collagen IV)” value (from here on “high glucose/TNFα/IL6-induced thickening”) [1] was “none of the medicines that we tested”.

`CC(C)(C(=O)NCC(F)(F)C(F)(F)F)C(=O)N[C@@H]1C(=O)Nc2ccccc2-c2ccccc21` [RO4929097] was tested, and the “increase of Col IV+ basement membrane” value [1] was “prevent the increase of basement membrane (Col IV) under diabetic conditions”.

With `C[C@H](NC(=O)Cc1cc(F)cc(F)c1)C(=O)N[C@H](C(=O)OC(C)(C)C)c1ccccc1` [DAPT] the “human blood vessel (CD31+) density in transplanted vascular organoids” value [2] was “restores human vessel density; also recorded: rescued the loss of CD31^+ human blood vessels”, the “vessel permeability / leakage (FITC-Dextran extravasation)” value [3] was “normalized diabetic vessel permeability; also recorded: excessive blood vessel leakiness was rescued” and the “dose dependence of prevention of basement membrane thickening (ColIV thickness)” value [4] was “dose dependent; also recorded: dose-dependent”. For the same molecule, the “high glucose/TNFα/IL6-induced thickening” value [1] was “abrogates thickening of the vascular basement membrane; also recorded: can prevent diabetic vascular basement membrane thickening; also recorded: completely abrogated the expansion of collagen IV and basal membrane thickening; also recorded: nearly completely prevented the thickening of the basal membrane”.

With `CCC1=C(C)CN(C(=O)NCCc2ccc(S(=O)(=O)NC(=O)N[C@H]3CC[C@H](C)CC3)cc2)C1=O` [glimepiride, Glimepiride] the “high glucose/TNFα/IL6-induced thickening” value [1] was “none of the medicines that we tested”.

In the case of `CC(C)[C@H]1CC[C@H](C(=O)N[C@H](Cc2ccccc2)C(=O)O)CC1` [nateglindine, Nateglindine], the “high glucose/TNFα/IL6-induced thickening” value [1] is reported as “none of the medicines that we tested”.

With “D114: non-crosslinked recombinant protein (Notch ligand, Delta-like protein 4) used as blocker” the “diabetic basement membrane thickening (Col IV) on blocking Notch pathway members” value [1] was “completely blocked basement membrane thickening”.

`O=C1CSC(=O)N1` [thiazolidinedione, 2,4-Thiazolidinedione] was tested, and the “high glucose/TNFα/IL6-induced thickening” value [1] was “none of the medicines that we tested”.

With `C[C@H](NC(=O)Cc1cc(F)cc(F)c1)C(=O)N[C@@H]1C(=O)N(C)c2ccccc2-c2ccccc21` [Dehydroxy-LY411575] the “increase of Col IV+ basement membrane” value [1] was “prevent the increase of basement membrane (Col IV) under diabetic conditions”.

`c1ccc2c(c1)[I+]c1ccccc1-2` [diphenyleneiodonium, Diphenyleneiodonium] was tested, and the “high glucose/TNFα/IL6-induced thickening” value [1] was “none of the medicines that we tested”.

B1: D111: non-crosslinked recombinant protein (Notch ligand) used as blocker (protein, UniProt O00548 18-723, looked up)
Delta-like protein 1: QVWSSGVFELKLQEFVNKKGLLGNRNCCRGGAGPPPCACRTFFRVCLKHYQASVSPEPPCTYGSAVTPVLGVDSFSLPDGGGADSAFSNPIRFPFGFTWPGTFSLIIEALHTDSPDDLATENPERLISRLATQRHLTVGEEWSQDLHSSGRTDLKYSYRFVCDEHYYGEGCSVFCRPRDDAFGHFTCGERGEKVCNPGWKGPYCTEPICLPGCDEQHGFCDKPGECKCRVGWQGRYCDECIRYPGCLHGTCQQPWQCNCQEGWGGLFCNQDLNYCTHHKPCKNGATCTNTGQGSYTCSCRPGYTGATCELGIDECDPSPCKNGGSCTDLENSYSCTCPPGFYGKICELSAMTCADGPCFNGGRCSDSPDGGYSCRCPVGYSGFNCEKKIDYCSSSPCSNGAKCVDLGDAYLCRCQAGFSGRHCDDNVDDCASSPCANGGTCRDGVNDFSCTCPPGYTGRNCSAPVSRCEHAPCHNGATCHERGHRYVCECARGYGGPNCQFLLPELPPGPAVVDLTEKLEGQGGPFPWVAVCAGVILVLMLLLGCAAVVVCVRLRLQKHRPPADPCRGETETMNNLANCQREKDISVSIIGATQIKNTNKKADFHGDHSADKNGFKARYPAVDYNLVQDLKGDDTAVRDAHSKRDTKCQPQGSSGEEKGTPTTLRGGEASERKRPDSGCSTSKDTKYQSVYVISEEKDECVIATEV
For B1, the “diabetic basement membrane thickening (Col IV) on blocking Notch pathway members” value [1] was “did not impact on the diabetes mediated thickening of the vascular basement membrane”.
